Laboratory results as given in US20120208883A1, “TREATMENT OF ONCOLOGICAL DISEASES” (priority 2008, published 2012).

Key:
tumour mass = details: WO/2000/06134; ALC 100 mg/kg orally; cited from earlier work
[1] = test system: NCI-H460 non-small cell lung carcinoma; test: Antitumor activity of L-carnitine in combination with cisplatin against NCI-H460; format: in vivo
Method: Treatments started three days after tumor injection. To evaluate the antitumor activity, tumor diameters were measured with a Vernier caliper. […] When tumors reached a volume of 1-2 cm^3, mice were sacrificed by cervical dislocation. Body weight recording was carried out through the study and mortality was noted.

A2780 ADR cell line = test: Anti-tumoral activity in vivo, A2780 ADR subcutaneous tumor; set-up: species or system CD1 nude mice; details: acetyl L-carnitine 200 mg/kg po qdx5/wx3w, doxorubicin 6 mg/kg iv q7dx3
Method: (§1) Anti-tumoral activity in vivo (CD1 Nude mouse) using five different tumoral cell lines.
The tumors were generated by subcutaneous injection in the right flank of CD1 nude mice of A2780 ADR tumor cells (5×10^6/100 μl/mouse) in 0.1 ml medium Tc199.
(§2) Treatments started when tumors were palpable, 8 mice per group were used.
(§3) Acetyl L-carnitine was administered po (oral administration) at 200 mg/kg according to the schedule qdx5/w (once per day for 5 days per week).
The reference compound doxorubicin was delivered intravenously according to the schedule q7dx3, at a dose of 6 mg/kg.
(§4) Tumor volume (TV) was calculated biweekly by measuring the diameter of the tumors with a Vernier caliper according to the formula
(§5) where d and D are the shortest and longest diameters, respectively. The efficacy of the drug treatment was assessed as the tumor volume inhibition according to the formula reported underneath: […]

[2] = test system: SJSA-1 (with amplification of mdm2) osteosarcoma cells; test: Antiproliferative activity on SJSA-1 osteosarcoma cells (MTT assay); format: cell-based
Method: The evaluation of antiproliferative activity was carried out by MTT assay.

[3] = test system: NCI-H1650 NSCLC tumor cell line; test: Anti-proliferative activity in vitro (MTT assay), NCI-H1650; format: cell-based; details: 10 mM, 6 days of treatment, 0.1% FBS
Method: (§6) The anti-proliferative activity of acetyl L-carnitine was evaluated in two different NSCLC tumor cell lines (NCI-H460 and NCI-H1650) and on one ovarian tumor cell line (A2780/Dx multidrug-resistant).
(§7) Cells were seeded in 96-well tissue culture plates and treated for three days (NCI-H460 NSCLC) or six days (NCI-H1650 NSCLC and A2780/Dx cells) with acetyl L-carnitine (10 mM in 0.1% FBS). To test the effect of acetyl L-carnitine on cell growth, tumor cells were seeded in 96-well tissue culture plates at approximately 10% confluence and were allowed to attach and recover for at least 24 h. Tumor cells were exposed to treatment protocol for 72 h or 6 days in 0.1% FBS at 37° C., then medium culture (RPMI 1640) was removed and 100 μl/well of medium were added containing 25 μl/well of a solution 5 mg/ml tetrazolium salt (MTT) assay, (final 1 mg/ml). Plates were kept at 37° C. in incubator with 5% CO2 for 2 h for the formation of blue crystals. […] The cell survival was determined as optical density by a Multiskan spectrofluorimeter at 570 nm (Hansen M. B., et al., J. Immunol. Methods, 1989, 119, 203). Percentage of tumor cell inhibition in the presence of 10 mM acetyl L-carnitine was evaluated and compared with that obtained in the absence of acetyl L-carnitine applying the statistical comparison by means of the Mann-Whitney test.

NCI-H1650 cell line = test: Anti-tumoral activity in vivo, NCI-H1650 subcutaneous tumor; set-up: species or system CD1 nude mice; details: acetyl L-carnitine 200 mg/kg po qdx5/wx3w; cisplatin 4 mg/kg ip q4dx6
Method: as §1
The tumors were generated by subcutaneous injection in the right flank of CD1 nude mice of NCI-H1650 tumor cells (5×10^6/200 μl/mouse) in suspension in 0.1 ml medium Tc199+0.1 ml Matrigel.
as §2, §3, §4, §5

[4] = test system: NCI-H460 NSCLC tumor cell line; test: Anti-proliferative activity in vitro (MTT assay), NCI-H460; format: cell-based; details: 10 mM, 72 h of treatment, 0.1% FBS
Method: as §6, §7

[5] = test system: NCI-H460 metastatic clone; test: Anti-tumoral and antimetastatic activity in vivo, NCI-H460 metastatic clone; set-up: species or system CD1 nude mice; details: for antimetastatic effect on spontaneous lung metastases: NCI-H460 metastatic clone injected subcutaneously; for % inhibition of lung metastases / TVI %: acetyl L-carnitine 200 mg/kg po qdx5/wx4w, cisplatin 5 mg/kg iv q7dx4
Method: as §1
(§8) The tumors were generated by subcutaneous injection in the right flank of CD1 nude mice of NCI-H460 tumor cells (3×10^6/100 μl/mouse), in 0.1 ml medium Tc199.
as §2, §3, §4, §5

[6] = test system: Human A549 NSCLC cell line; test: Anti-tumoral activity in vivo, A549 subcutaneous tumor; set-up: species or system CD1 nude mice; details: acetyl L-carnitine 200 mg/kg po qdx5/wx4w, cisplatin 4 mg/kg ip q4dx6
Method: as §1
The tumors were generated by subcutaneous injection in the right flank of CD1 nude mice of A549 tumor cells (3×10^6/100 μl/mouse) in 0.1 ml medium Tc199.
as §2, §3, §4, §5

[7] = test system: A2780/Dx multidrug-resistant ovarian tumor cell line; test: Anti-proliferative activity in vitro (MTT assay), A2780/Dx; format: cell-based; details: 10 mM, 6 days of treatment, 0.1% FBS
Method: as §6, §7

NCI-H460 cell line = test: Anti-tumoral activity in vivo, NCI-H460 subcutaneous tumor; set-up: species or system CD1 nude mice; details: acetyl L-carnitine 200 mg/kg po qdx5/wx4w; cisplatin 4 mg/kg ip q4dx5
Method: as §1, §8, §2, §3, §4, §5

SMILES: CC(=O)O[C@H](CC(=O)[O-])C[N+](C)(C)C [acetyl L-carnitine (ALC)]
- effect on the formation of lung metastases (tumour mass): significant inhibitory effect

SMILES: C[N+](C)(C)C[C@H](O)CC(=O)[O-] [L-carnitine]
- potentiation of the cytotoxic activity of cisplatin ([1]; L-carnitine 200 mg/mice/day given chronically): not able to potentiate the cytotoxic activity of cisplatin

SMILES: COc1cccc2c1C(=O)c1c(O)c3c(c(O)c1C2=O)C[C@@](O)(C(=O)CO)C[C@@H]3O[C@H]1C[C@H](N)[C@H](O)[C@H](C)O1 [Doxorubicin, doxorubicin, reference compound]
- TVI % (A2780 ADR cell line): 60 ± 11%

SMILES: CC(=O)O[C@H](CC(=O)[O-])C[N+](C)(C)C [Acetyl L-carnitine, acetyl L-carnitine]
- Tumor cell inhibition % ([2]; 10 mM, 72 h of exposure followed by 72 h of recovery, 0.1% FBS, P 0.0037 vs control): 24%
- antiproliferative activity compared with cisplatin ([2]; 72 h of exposure, medium containing 0.1% FBS): statistically significant more active than cisplatin
- Tumor cell inhibition % ([3]; P <0.001): 41%
- Absorbance ± SE at 570 nm ([3]; control 484 ± 25): 285 ± 11
- TVI % (NCI-H1650 cell line): 19 ± 4%
- Tumor cell inhibition % ([4]; P <0.001): 32%
- Absorbance ± SE at 570 nm ([4]; control 745 ± 18): 509 ± 8
- effect on tumour growth (tumour mass): no effect on tumour growth
- TVI % (A2780 ADR cell line): 28 ± 11%
- TVI % (A2780 ADR cell line; listed as acetyl L-carnitine): 28%
- antimetastatic effect on spontaneous lung metastases [5]: statistically significant antimetastatic effect
- % inhibition of lung metastases [5]: 50%
- TVI % [5]: 34 ± 5%
- TVI % [6]: 27 ± 3%
- TVI % ([6]; listed as acetyl L-carnitine): 27%
- Tumor cell inhibition % [7]: 29%
- Absorbance ± SE at 570 nm ([7]; control 331 ± 18): 234 ± 16
- TVI % ± SE (NCI-H460 cell line): 40 ± 6%

SMILES: CC(=O)O[C@H]1C(=O)[C@@]2(C)[C@H]([C@H](OC(=O)c3ccccc3)[C@]3(O)C[C@H](OC(=O)[C@H](O)[C@@H](NC(=O)c4ccccc4)c4ccccc4)C(C)=C1C3(C)C)[C@]1(OC(C)=O)CO[C@@H]1C[C@@H]2O [Paclitaxel, paclitaxel, reference compound]
- inhibition of tumour growth (TVI) (tumour mass): 88%

SMILES: N.N.[Cl][Pt][Cl] [Cisplatin, cisplatin, reference compound]
- TVI % (NCI-H1650 cell line): 23 ± 3%
- TVI % ± SE +32 ([1]; day +32, cisplatin 4 mg/kg ip q4d/wx3w, L-carnitine 200 mg/kg po qdx5/wx3w): 80 ± 21%
- TVI % (A2780 ADR cell line): 60%
- antimetastatic effect on spontaneous lung metastases [5]: ineffective
- % inhibition of lung metastases [5]: 0%
- TVI % [5]: 41 ± 5%
- TVI % [6]: 49 ± 13%
- TVI % ([6]; listed as cisplatin): 49%
- TVI % ± SE (NCI-H460 cell line): 41 ± 5%
